Consider 16 compounds from patent US7223781B2 (Beiersdorf AG, priority 2001, dated 2007).

Molecules are shown by their SMILES. Read-outs that look alike come from different tables or passages of the source.

The target in assay [1] is T1, COX-1 (Sus scrofa, UniProt A0A287ANF9).
T1 construct: A platelet suspension obtained from pig's blood is preincubated with the test substance; endogenous in cells; host or cells: platelets from pig's blood
The assay can be described thus: In-vitro test for COX-1 inhibition: fluorimetric quantification of malonaldehyde (MDA) in A23187-activated pig platelet suspension. It counts as cell-based. Conditions: for inhibition of COX-1 (in words): comparison of both isoenzymes. Summed up: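 Pig platelets (8×10^8 cells/ml) were preincubated with compound for 10 min at 37°C, then stimulated with A23187 ([…]) for 10 min. Malonaldehyde was condensed with thiobarbituric acid and read by fluorescence at 533/550 nm; IC50 taken from a calibration curve.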

The target of assay [2] is T2, COX-2 (Homo sapiens, UniProt P35354).
T2 construct: endogenous in cells; host or cells: LPS-stimulated human monocytes (Ficoll extraction)
T2 sequence (P35354 18-604): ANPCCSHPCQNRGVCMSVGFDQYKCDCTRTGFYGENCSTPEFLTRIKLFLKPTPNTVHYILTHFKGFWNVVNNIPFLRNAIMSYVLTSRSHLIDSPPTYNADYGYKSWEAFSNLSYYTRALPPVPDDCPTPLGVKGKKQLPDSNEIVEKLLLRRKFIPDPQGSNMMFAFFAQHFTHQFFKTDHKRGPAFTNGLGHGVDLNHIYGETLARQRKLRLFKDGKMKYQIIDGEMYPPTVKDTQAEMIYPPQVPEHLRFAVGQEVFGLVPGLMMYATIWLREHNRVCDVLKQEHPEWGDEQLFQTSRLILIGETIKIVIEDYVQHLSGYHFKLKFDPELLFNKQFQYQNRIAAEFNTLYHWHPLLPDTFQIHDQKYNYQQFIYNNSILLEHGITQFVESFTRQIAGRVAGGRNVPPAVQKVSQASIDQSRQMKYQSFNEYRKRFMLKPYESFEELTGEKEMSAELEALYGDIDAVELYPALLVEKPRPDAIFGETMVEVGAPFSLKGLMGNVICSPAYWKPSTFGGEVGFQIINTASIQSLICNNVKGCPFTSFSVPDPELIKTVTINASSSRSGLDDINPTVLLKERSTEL
Put plainly: In-vitro test for COX-2 inhibition: PGE2 ELISA in LPS-stimulated human monocytes. Type of assay: cell-based. Conditions: for IC50: Table 18, LPS-stimulated human monocytes, PGE2; for inhibition of COX-2 (in words): comparison of both isoenzymes. As for the experimental part: In-vitro Test Procedure for the Determination of COX-2 Inhibition
The procedure is carried out on LPS-stimulated human monocytes which have been obtained by Ficoll extraction. The measurement variable used is the PGE2 formed, which is determined by means of ELISA.
(In general: In an ELISA, binding on a coated surface is turned into a signal by an enzyme label.)

Setting [3] is: read-out: COX-2 inhibition pIC50 (converted).
The mark [4] stands for this setting: Table 9, alkylamides, pig platelets, read-out: MDA pIC50 (converted).
Setting [5] is: Table 8, arylsulfonamides, pig platelets, read-out: MDA pIC50 (converted).
Where [6] appears, read: tables 1 to 17, read-out: IC50 values (inhibition of cyclooxygenase-1).
The mark [7] stands for this setting: read-out: COX-2 inhibition IC50.
Setting [8] is: Table 2, sulfanylacetamides, pig platelets, read-out: MDA pIC50 (converted).

T1 sequence (A0A287ANF9 25-600): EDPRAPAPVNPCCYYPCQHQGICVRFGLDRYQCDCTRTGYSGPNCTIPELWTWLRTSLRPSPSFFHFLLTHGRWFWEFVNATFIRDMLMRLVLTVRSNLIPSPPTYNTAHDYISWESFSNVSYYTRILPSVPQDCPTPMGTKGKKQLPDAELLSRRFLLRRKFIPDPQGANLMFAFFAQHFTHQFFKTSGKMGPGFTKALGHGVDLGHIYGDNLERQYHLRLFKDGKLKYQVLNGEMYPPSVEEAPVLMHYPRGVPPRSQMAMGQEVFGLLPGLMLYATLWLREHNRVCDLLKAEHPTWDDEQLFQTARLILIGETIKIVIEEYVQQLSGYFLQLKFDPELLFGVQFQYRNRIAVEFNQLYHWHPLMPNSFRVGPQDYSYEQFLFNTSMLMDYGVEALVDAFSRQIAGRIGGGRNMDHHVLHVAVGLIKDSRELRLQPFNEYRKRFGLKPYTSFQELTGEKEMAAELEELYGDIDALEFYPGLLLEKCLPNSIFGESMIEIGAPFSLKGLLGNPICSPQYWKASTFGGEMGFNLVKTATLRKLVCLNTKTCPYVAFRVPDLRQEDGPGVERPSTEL

Regarding `COc1ccc(-c2nc(SCCN(C)C(=O)c3ccccc3)[nH]c2-c2ccc(OC)cc2)cc1` [Compound T29, N^1-{2-[4,5-Bis(4-methoxyphenyl)-1H-imidazol-2ylsulfanyl]ethyl}-N^1-1-methylbenzamide], the IC50 in assay [1] (Table 17, methyl derivatives, pig platelets, read-out: MDA pIC50 (converted)) was 20.9 nM; in assay [2] (setting [3]), 10 nM. Besides, in assay [1], the “inhibition of COX-1 (in words)” value is given as “approximately equally high potency”. Besides, in assay [2], the “inhibition of COX-2 (in words)” value is “approximately equally high potency”.

On to `CC(=O)NCCSc1nc(-c2ccc(Cl)cc2)c(-c2ccc(Cl)cc2)[nH]1` [Compound T84, N^1-{2-[4,5-Bis(4-chlorophenyl)-1H-imidazol-2-ylsufanyl]ethyl}acetamide], for which the results for the IC50 in assay [1] (setting [4]) and in assay [2] (setting [3]) were 1100 nM and 2690 nM, respectively.

Consider `COc1ccc(-c2nc(SCCNS(=O)(=O)c3ccc(NC(C)=O)cc3)[nH]c2-c2ccc(OC)cc2)cc1` [Compound T27, N^1-(4-{2-[4,5-Bis(4-methoxyphenyl)-1H-imidazol-2-ylsufanyl]ethyl-sulfamoyl}phenyl)acetamide], for which the figures for the IC50 in assay [1] (setting [5]) and in assay [2] (setting [3]) were 18.2 nM and 1200 nM, respectively.

On to `COc1ccc(-c2nc(SCC(=O)c3ccccc3)[nH]c2-c2ccc(OC)cc2)cc1` [Compound T11, 2-[4,5-Bis(4-methoxyphenyl)-1H-imidazol-2-ylsulfanyl]-1-phenylethan-1-one], for which the IC50 is 9.5 nM in assay [1] (Table 4, aryl ketones, pig platelets, read-out: MDA IC50); approximately 1 nM in assay [1] (setting [6]); 257 nM in assay [2] (setting [3]).

For the compound `COc1ccc(-c2[nH]c(SCCNS(=O)(=O)c3ccc(Cl)cc3)nc2-c2ccc(Cl)cc2)cc1` [Compound T111, N^1-{2-[4-(4-Chlorophenyl)-5-(4-methoxyphenv)-1H-imidazol-2-yl-sufanyl]ethyl}-4-chlorobenzenesulfonamide], the IC50 in assay [1] (setting [5]) is 129 nM; in assay [2] (setting [7]), 800 nM.

For the compound `CCN(CC)C(=O)Sc1nc(-c2ccc(OC)cc2)c(-c2ccc(OC)cc2)[nH]1` [Compound T2, [4,5-Bis(4-methoxyphenyl)-1H-imidazol-2-yl]-N,N-diethylcarbamic acid thioester], the IC50 in assay [1] (Table 1, carbamic acid thioesters, pig platelets, read-out: MDA IC50) was 4.8 nM; in assay [1] (setting [6]) it was approximately 1 nM; in assay [2] (setting [3]) it was 2400 nM.

Regarding `COc1ccc(-c2nc(SC(C(C)=O)C(=O)N(C)C)[nH]c2-c2ccc(OC)cc2)cc1` (stereo not shown) [Compound T7, N^1,N^1-Dimethyl-2-[4,5-bis(4-methoxyphenyl)-1H-imidazol-2-ylsufanyl]-3-oxobutanamide], the IC50 was 33.1 nM in assay [1] (setting [8]) and 500 nM in assay [2] (setting [7]).

`COc1ccc(-c2nc(SCC(=O)N(C)C)[nH]c2-c2ccc(OC)cc2)cc1` [Compound T6, N^1N^1-Dimethyl-2-[4,5-bis(4-methoxyphenyl)-1H-imidazol-2-ylsulfanyl]-acetamide]: the IC50 in assay [1] (setting [8]) was 10 nM; in assay [1] (Table 15, N,N-acetamides, pig platelets, read-out: MDA pIC50 (converted)), 10 nM; in assay [2] (setting [3]) it was 2290 nM.

In the case of `COc1ccc(-c2nc(SCCNC(C)=O)[nH]c2-c2ccc(OC)cc2)cc1` [Compound T49, N^1-{2-[4,5-Bis(4-methoxyphenyl)-1H-imidazol-2-ylsulfanyl]ethyl}acetamide], the IC50 in assay [1] (setting [4]) was 10 nM; in assay [2] (setting [3]) it was 2690 nM.

Turning to `COc1ccc(-c2nc(SCCNS(=O)(=O)c3ccc(Cl)cc3)[nH]c2-c2ccc(OC)cc2)cc1` [Compound T18, N-hu 1-{2-[4,5-Bis(4-methoxyphenyl)-1H-imidazol-2-ylsufanyl]ethyl}-4-chlorobenzenesulfonamide], the IC50 was 282 nM in assay [1] (setting [5]) and 3020 nM in assay [2] (setting [3]).

For the compound `COc1ccc(-c2nc(SCCN(C)C(=O)c3ccccc3)n(C)c2-c2ccc(OC)cc2)cc1` [Compound T31], the IC50 in assay [1] (Table 16, dimethyl compounds, pig platelets, read-out: MDA pIC50 (converted)) is 83.2 nM; in assay [2] (setting [7]) it was 910 nM.

Consider `COc1ccc(-c2nc(SCCNS(=O)(=O)c3cc(C(F)(F)F)cc(C(F)(F)F)c3)[nH]c2-c2ccc(OC)cc2)cc1` [Compound T22, N^1-{2-[4,5-Bis(4-methoxyphenyl)-1H-imidazol-2-ylsufanyl]ethyl}-3,5-bis-(trifluoromethyl)benzenesulfonamide], for which the IC50 is 407 nM in assay [1] (setting [5]) and 1510 nM in assay [2] (setting [3]).

On to `COc1ccc(-c2nc(SCCNC(=O)N(C)C)[nH]c2-c2ccc(OC)cc2)cc1` [Compound T57, N^1-{2-[4,5-Bis(4-methoxyphenyl)-1H-imidazol-2-ylsulfanyl]ethyl}-N′,N′-dimethylurea], for which the IC50 in assay [1] (Table 13, urea derivatives, pig platelets, read-out: MDA IC50) was 78 nM; in assay [2] (setting [3]), 209 nM.

On to `CCN(CC)C(=O)Sc1nc(-c2ccc(Cl)cc2)c(-c2ccc(OC)cc2)[nH]1` [Compound T108, [4-(4-Chlorophenyl)-5-(4-methoxyphenyl)-1H-imidazol-2-yl]-N N-diethyl-carbamic acid thioester], for which the IC50 is 158 nM in assay [1] (Table 1, carbamic acid thioesters, pig platelets, read-out: MDA pIC50 (converted)) and 1000 nM in assay [2] (setting [3]).

As for `COc1ccc(-c2c(-c3ccc(Cl)cc3)nc(SCc3ccccn3)n2CC(=O)O)cc1` [Compound T109, 2-[4-(4-Chlorophenyl)-5-(4-methoxyphenyl)-2-(2-pyridylmethylsulfanyl) -1H-imidazol-1-yl]acetic acid], the IC50 in assay [1] (Table 6, N1-acetic acid derivatives, pig platelets, read-out: MDA IC50) was 490 nM; in assay [2] (setting [3]), 1000 nM. Also, the “inhibition of COX-1 (in words)” value in assay [1] is “medium-strong inhibition”. Also, the “inhibition of COX-2 (in words)” value in assay [2] was “medium-strong inhibition”.

Turning to `COc1ccc(-c2nc(SCc3ccccn3)[nH]c2-c2ccc(OC)cc2)cc1` [Compound T69, 2-[4,5-Bis(4-methoxyphenyl)-1H-imidazol-2-ylsulfanylmethyl]pyridine], the IC50 in assay [1] (Table 5, heteroarylmethyl sulfides, pig platelets, read-out: MDA pIC50 (converted)) is 100 nM; in assay [1] (Table 14, sulfones and their sulfide analogs, pig platelets, read-out: MDA pIC50 (converted)), 100 nM; in assay [2] (setting [3]) it was 240 nM.
